Test results taken from patent publication EP2712863B1, “Novel inhibitors of bacterial biofilms and related methods” (Sequoia Sciences, Inc., priority 2012, dated 2014).
≈ marks a conversion by molar mass, not a printed value.

Key:
[1] = system: P. aeruginosa; assay: Biofilm growth assay (spreading biofilm on semi-solid agar); format: cell-based; conditions: Pseudomonas aeruginosa; Table 3; concentration that reduces the area of the spreading biofilm by >= 85%; read-out: P. aeruginosa
Excerpt: (§1) "Biofilm Growth Assay" refers to an assay performed on semi-solid agar surface where the bacteria collectively move out from an inoculation point. To those skilled in the art, the act of bacteria collectively moving out from an inoculation point on a semi-solid surface may be referred to as swarming or a spreading biofilm. (Anderson, et al Microbiology, 2003, 149, 37-46; Daniels, et al. FEMS Microbiology Reviews, 2004, 28, 261-289). The procedure to perform this assay is described in detail in the Examples. This type of surface motility by bacteria has been reported in the literature by those skilled in the art.
(§2) The biofilm growth assay was carried out to measure swarming or biofilm spreading on semi-solid agar media in round plates (for example, 100 × 15 mm), also referred to as Petri dishes. For E. coli, the plates contained LB medium with 0.6% agar and 0.5% glucose. P. aeruginosa plates were made with M8 agar supplemented with 0.2% glucose, 100 µM CaCl2, 1 mM MgSO4, and 0.5% Casamino acids. The agar plates of this assay consisted of 0.4% to 0.7% agar (Bacto or Noble agar), although other media may also be used as described in the literature and known to those skilled in the art. Test compounds at the desired concentration were added to the cooled, autoclaved media. Portions of the media were then poured into the plates (20 mL/plate), and the plates allowed to dry at room temperature for approximately 3 to 4 hours. Alternatively, however, plates may be dried in a laminar flow hood for approximately fifteen to twenty minutes. Overnight cultures were grown in a 37°C shaker in LB (E. coli) or TSB (P. aeruginosa). Plates were inoculated by placing 5 µL of the appropriate overnight culture in the centers of the plates. The plates then were incubated overnight at 37°C. The area of the zone of spreading bacteria was then measured and replicates are averaged. Percent inhibition was calculated as 100 × (area without compound - area with compound)/(area without compound). An active compound was considered that which reduces the area of the spreading biofilm compared to negative controls by greater than or equal to 85%. The values shown in Table 1 are the concentrations of compounds (µg/ml) tested in the biofilm growth assay that reduce the area of the spreading biofilm compared to negative controls by greater than or equal to 85% unless noted differently in Table 1. A > ("greater than" symbol) as used in Table 1 is well understood to those skilled in the art as an indication that the listed concentration was not effective at this concentration.
(§3) All of the compounds shown in Tables 2, 3, 4, and 5, below, were prepared semi-synthetically from oleanolic acid, except for Compounds 2 and 3. Compound 2 was prepared from ursolic acid. Compound 3 was prepared from hederagenin, but could also be prepared from an oleanolic acid analog with a hydroxyl at C23 or C24. These compounds were tested in the spreading biofilm assay according to the methods detailed in Example I, above. The values shown in Tables 2, 3, 4, and 5 are the concentrations of compounds tested in the biofilm growth assay that reduce the area of the spreading biofilm compared to negative controls by greater than or equal to 85%. Table 2. Compound 1 and its Analogs and their inhibitory concentrations in the biofilm growth assay as detailed in Example I, above

[2] = system: E. coli; assay: as above; format: cell-based; conditions: Escherichia coli; Table 3; concentration that reduces the area of the spreading biofilm by >= 85%; read-out: E. coli
Excerpt: as §1, §2, §3

SMILES	IC85 [1]	IC85 [2]
CCC1=C2[C@@H]3CC(C)(C)CC[C@]3(C(=O)O)CC[C@@]2(C)[C@]2(C)CC[C@H]3C(C)(C)c4n[nH]c(N)c4C[C@]3(C)C2C1 (stereo partly drawn) [Compound 14, (4aS,6aS,6bR,8aR,13aR,15bS)-12-Amino-15-ethyl-2,2,6a,6b,9,9,13a-heptamethyl-2,3,4,4a,5,6,6a,6b,7,8,8a,9,11,13,13a,13b,14,15b-octadecahydro-1H-chryseno[1,2-f]indazole-4a-carboxylic acid]	0.5 µg/mL (≈ 0.958 µM)	2 µg/mL (≈ 3.83 µM)
CC1(C)CC[C@]2(C(=O)O)CC[C@]3(C)C(=C(c4cccc(N)c4)CC4[C@@]5(C)Cc6c(n[nH]c6N)C(C)(C)[C@@H]5CC[C@]43C)[C@@H]2C1 (stereo partly drawn) [Compound 15, (4aS,6aS,6bR,8aR,13aR,15bS)-12-Amino-15-(3-aminophenyl)-2,2,6a,6b,9,9,13a-heptamethyl-2,3,4,4a,5,6,6a,6b,7,8,8a,9,11,13,13a,13b,14,15b-octadecahydro-1H-chryseno[1,2-f]indazole-4a-carboxylic acid]	0.25 µg/mL (≈ 0.427 µM)	1 µg/mL (≈ 1.71 µM)
CC1(C)CC[C@]2(C(=O)O)CC[C@]3(C)C(=C(c4cccc(O)c4)CC4[C@@]5(C)Cc6c(n[nH]c6N)C(C)(C)C5CC[C@]43C)C2C1 (stereo partly drawn) [Compound 16, (4aS,6aS,6bR,13aR)-12-Amino-15-(3-hydroxyphenyl)-2,2,6a,6b,9,9,13a-heptamethyl-2,3,4,4a,5,6,6a,6b,7,8,8a,9,11,13,13a,13b,14,15b-octadecahydro-1H-chryseno[1,2-f]indazole-4a-carboxylic acid]	1 µg/mL (≈ 1.71 µM)	2 µg/mL (≈ 3.41 µM)
CC1(C)CC[C@]2(C(=O)O)CC[C@]3(C)C(=C(c4cccc(F)c4)CC4[C@@]5(C)Cc6c(n[nH]c6N)C(C)(C)[C@@H]5CC[C@]43C)[C@@H]2C1 (stereo partly drawn) [Compound 17, (4aS,6aS,6bR,8aR,13aR,15bS)-12-Amino-15-(3-fluorophenyl)-2,2,6a,6b,9,9,13a-heptamethyl-2,3,4,4a,5,6,6a,6b,7,8,8a,9,11,13,13a,13b,14,15b-octadecahydro-1H-chryseno[1,2-f]indazole-4a-carboxylic acid]	0.5 µg/mL (≈ 0.851 µM)	> 2 µg/mL
CC1(C)CC[C@]2(C(=O)O)CC[C@]3(C)C(=C(c4cccc(CN)c4)CC4[C@@]5(C)Cc6c(n[nH]c6N)C(C)(C)C5CC[C@]43C)C2C1 (stereo partly drawn) [Compound 18, (4aS,6aS,6bR,13aR)-12-Amino-15-(3-(aminomethyl)phenyl)-2,2,6a,6b,9,9,13a-heptamethyl-2,3,4,4a,5,6,6a,6b,7,8,8a,9,11,13,13a,13b,14,15b-octadecahydro-1H-chryseno[1,2-f]indazole-4a-carboxylic acid]	0.5 µg/mL (≈ 0.835 µM)	1 µg/mL (≈ 1.67 µM)
CC1(C)CC[C@]2(C(=O)O)CC[C@]3(C)C(=C(c4cccc(C(N)=O)c4)CC4[C@@]5(C)Cc6c(n[nH]c6N)C(C)(C)C5CC[C@]43C)C2C1 (stereo partly drawn) [Compound 19, (4aS,6aS,6bR,13aR)-12-Amino-15-(3-carbamoylphenyl)-2,2,6a,6b,9,9,13a-heptamethyl-2,3,4,4a,5,6,6a,6b,7,8,8a,9,11,13,13a,13b,14,15b-octadecahydro-1H-chryseno[1,2-f]indazole-4a-carboxylic acid]	1 µg/mL (≈ 1.63 µM)	1 µg/mL (≈ 1.63 µM)
Cc1ccc(C2=C3C4CC(C)(C)CC[C@]4(C(=O)O)CC[C@@]3(C)[C@]3(C)CCC4C(C)(C)c5n[nH]c(N)c5C[C@]4(C)C3C2)cc1N (stereo partly drawn) [Compound 20, (4aS,6aS,6bR,13aR)-12-Amino-15-(3-amino-4-methylphenyl)-2,2,6a,6b,9,9,13a-heptamethyl-2,3,4,4a,5,6,6a,6b,7,8,8a,9,11,13,13a,13b,14,15b-octadecahydro-1H-chryseno[1,2-f]indazole-4a-carboxylic acid]	0.5 µg/mL (≈ 0.835 µM)	2 µg/mL (≈ 3.34 µM)
CN(C)c1cccc(C2=C3C4CC(C)(C)CC[C@]4(C(=O)O)CC[C@@]3(C)[C@]3(C)CCC4C(C)(C)c5n[nH]c(N)c5C[C@]4(C)C3C2)c1 (stereo partly drawn) [Compound 21, (4aS,6aS,6bR,13aR)-12-Amino-15-(3-(dimethylamino)phenyl)-2,2,6a,6b,9,9,13a-heptamethyl-2,3,4,4a,5,6,6a,6b,7,8,8a,9,11,13,13a,13b,14,15b-octadecahydro-1H-chryseno[1,2-f]indazole-4a-carboxylic acid]	0.5 µg/mL (≈ 0.816 µM)	> 2 µg/mL
CN(C)c1cc(C2=C3[C@@H]4CC(C)(C)CC[C@]4(C(=O)O)CC[C@@]3(C)[C@]3(C)CC[C@H]4C(C)(C)c5n[nH]c(N)c5C[C@]4(C)C3C2)ccn1 (stereo partly drawn) [Compound 22, (4aS,6aS,6bR,8aR,13aR,15bS)-12-Amino-15-(2-(dimethylamino)pyridin-4-yl)-2,2,6a,6b,9,9,13a-heptamethyl-2,3,4,4a,5,6,6a,6b,7,8,8a,9,11,13,13a,13b,14,15b-octadecahydro-1H-chryseno[1,2-f]indazole-4a-carboxylic acid]	1 µg/mL (≈ 1.63 µM)	> 2 µg/mL
CC1(C)CC[C@]2(C(=O)O)CC[C@]3(C)C(=C(c4ccccc4N)CC4[C@@]5(C)Cc6c(n[nH]c6N)C(C)(C)C5CC[C@]43C)C2C1 (stereo partly drawn) [Compound 23, (4aS,6aS,6bR,13aR)-12-Amino-15-(2-aminophenyl)-2,2,6a,6b,9,9,13a-heptamethyl-2,3,4,4a,5,6,6a,6b,7,8,8a,9,11,13,13a,13b,14,15b-octadecahydro-1H-chryseno[1,2-f]indazole-4a-carboxylic acid]	1 µg/mL (≈ 1.71 µM)	2 µg/mL (≈ 3.42 µM)
CC1(C)CC[C@]2(C(=O)O)CC[C@]3(C)C(=C(Cl)CC4[C@@]5(C)Cc6c(n[nH]c6N)C(C)(C)C5CC[C@]43C)C2C1 (stereo partly drawn) [Compound 24, (4aS,6aS,6bR,13aR)-12-Amino-15-chloro-2,2,6a,6b,9,9,13a-heptamethyl-2,3,4,4a,5,6,6a,6b,7,8,8a,9,11,13,13a,13b,14,15b-octadecahydro-1H-chryseno[1,2-f]indazole-4a-carboxylic acid]	0.5 µg/mL (≈ 0.947 µM)	1 µg/mL (≈ 1.89 µM)
CC1(C)CC[C@]2(C(=O)O)CC[C@]3(C)C(=C(Br)CC4[C@@]5(C)Cc6c(n[nH]c6N)C(C)(C)[C@@H]5CC[C@]43C)[C@@H]2C1 (stereo partly drawn) [Compound 25, (4aS,6aS,6bR,8aR,13aR,15bR)-12-Amino-15-bromo-2,2,6a,6b,9,9,13a-heptamethyl-2,3,4,4a,5,6,6a,6b,7,8,8a,9,11,13,13a,13b,14,15b-octadecahydro-1H-chryseno[1,2-f]indazole-4a-carboxylic acid]	0.5 µg/mL (≈ 0.873 µM)	> 2 µg/mL
CC1(C)CC[C@]2(C(=O)O)CC[C@]3(C)C(=C(c4ccoc4)CC4[C@@]5(C)Cc6c(n[nH]c6N)C(C)(C)[C@@H]5CC[C@]43C)[C@@H]2C1 (stereo partly drawn) [Compound 26, (4aS,6aS,6bR,8aR,13aR,15bS)-12-Amino-15-(furan-3-yl)-2,2,6a,6b,9,9,13a-heptamethyl-2,3,4,4a,5,6,6a,6b,7,8,8a,9,11,13,13a,13b,14,15b-octadecahydro-1H-chryseno[1,2-f]indazole-4a-carboxylic acid]	0.25 µg/mL (≈ 0.447 µM)	1 µg/mL (≈ 1.79 µM)
CC1(C)CC[C@]2(C(=O)O)CC[C@]3(C)C(=C(c4cn[nH]c4)CC4[C@@]5(C)Cc6c(n[nH]c6N)C(C)(C)[C@@H]5CC[C@]43C)[C@@H]2C1 (stereo partly drawn) [Compound 27, (4aS,6aS,6bR,8aR,13aR,15bS)-12-Amino-2,2,6a,6b,9,9,13a-heptamethyl-15-(1H-pyrazol-4-yl)-2,3,4,4a,5,6,6a,6b,7,8,8a,9,11,13,13a,13b,14,15b-octadecahydro-1 H-chryseno[1,2-f]indazole-4a-carboxylic acid]	1 µg/mL (≈ 1.79 µM)	> 2 µg/mL
Cn1cc(C2=C3[C@@H]4CC(C)(C)CC[C@]4(C(=O)O)CC[C@@]3(C)[C@]3(C)CC[C@H]4C(C)(C)c5n[nH]c(N)c5C[C@]4(C)C3C2)cn1 (stereo partly drawn) [Compound 28, (4aS,6aS,6bR,8aR,13aR,15bS)-12-Amino-2,2,6a,6b,9,9,13a-heptamethyl-15-(1-methyl-1H-pyrazol-4-yl)-2,3,4,4a,5,6,6a,6b,7,8,8a,9,11,13,13a,13b,14,15b-octadecahydro-1H-chryseno[1,2-f]indazole-4a-carboxylic acid]	1 µg/mL (≈ 1.74 µM)	2 µg/mL (≈ 3.49 µM)
